Key:
Cox (cytochrome oxidase) = test: Quantitative PCR of mitochondrial gene Cox; type: cell-based, mouse; conditions: 1 μM and 10 μM, 1 h and 2 h treatment
Description: The effect of Compound A or derivative thereof on the mRNA expression of genes related to plasticity (Arc, cFos, and Zif268) was determined as described. Cox (cytochrome oxidase) was used to evaluate if the derivative changes expression of mitochondrial genes.
Determination of gene expression was performed as previously described [Yang J, et al, Lactate promotes plasticity gene expression by potentiating NMDA signalling in neurons. Proc Natl Acad Sci USA. 2014. 111(33):12228-33]. Total RNA was isolated from cultured cells using Nucleospin RNA II kit (Macherey-Nagel) according to the manufacturer's instructions. The first strand of cDNA was synthesized from 100 ng of total RNA (60 min at 37° C. followed by 5 min at 95° C.) using a high-capacity RNA to cDNA reverse transcription system (Applied Biosystems). One-twentieth of the resulting cDNA was amplified by quantitative PCR (qPCR) with an ABI Prism 7900 system (Applied Biosystems). The PCR mix was composed of 6 ng of cDNA, 300 nM of forward and reverse primers in 10 μL of ix SYBR-Green PCR MasterMix (Applied Biosystems). Primer sequences were designed using Primer Express 3.0 software (Applied Biosystems) and oligonucleotides were synthesized by Microsynth.

[1] = Metabolic stability in mouse plasma; type: in vitro ADME, CD1-mouse; conditions: 1 μM
Description: The compounds were incubated with plasma, and the collected samples were analyzed by UPLC/HR-MS to measure stability of the compounds.
Sample type: plasma; Species: CD1-mouse (male), human (mixed gender); Time points: 0, 20, 40, 60, 120 min;
Spiking solvent: 50% DMSO ( 1/100 to incubation); Quenching solvent: 2-fold volume of 100% ACN; Control: propanthelin bromide (human, mouse)
The study compounds were incubated with plasma as specified above. The collected samples were stored at −20 C until thawed at room temperature, centrifuged and analyzed using UPLC/PDA with high resolution mass spectrometry (QE-Orbitrap-MS on DDI mode) to monitor substrate depletion and metabolite formation. The analytical method was optimised by using the parent compounds for optimum chromatographic properties (peak shape and retention) and mass spectrometric ionisation. Disappearance was based on relative LC/MS peak areas (0 min=100%) and will be used to calculate half-lives.

TNF-α = test: LPS stimulation of BV-2 microglia: TNF-α; type: cell-based, murine; conditions: between 0.3 and 3 μM, BV2, LPS 500 ng/ml, 24 h
Description: The murine microglial cell line BV-2 was grown in DMEM medium supplemented with 10% FCS, 1% penicillin/streptomycin and 2 mM L-glutamine (culture medium). For LPS stimulation assay, 10000 BV-2 cells per well (uncoated 96 well plates) were plated and after 24 hours, medium was changed to serum-free treatment medium (DMEM, 2 mM L-glutamine) and cells were maintained in treatment medium for the remaining culture period. 1 h after changing cells to treatment medium, the test items were added 1 hour before LPS stimulation (Sigma-Aldrich; L6529; 1 mg/ml stock in ddH2O, final concentration in well: 500 ng/ml (dilutions in medium)). Cells treated with vehicle, cells treated with LPS alone, as well as cells treated with LPS plus reference dexamethasone at 10 μM item served as controls.
Following 24 h of stimulation, cell supernatants were collected for the NO, and cytokine measurements. Levels of 2 cytokines (TNF-α, IL-6) were measured by an immunosorbent assay (U-PLEX Custom […] Cytokine, Mesoscale Discovery) according to the instructions of the manufacturer and evaluated in comparison to calibration curves provided in the kit. […] Absorbance was measured at 570 nm. Nitrosative stress was evaluated in the study samples in comparison to a NaNO2 standard curve. […]

[2] = test system: primary cultures of cortical neurons; test: Primary neuronal culture viability (MTT assay); type: cell-based, mouse; conditions: primary neuron culture, 24 hours
Description: For neuronal cultures, primary cultures of cortical neurons were prepared from embryonic day 17 (E17) OF1 mice embryos (Charles River Laboratories) as previously described [Allaman I., Pellerin L., Magistretti P. J. (2004) Glucocorticoids modulate neurotransmitter-induced glycogen metabolism in cultured cortical astrocytes. J. Neurochem. 88, 900-908] or from C57BL/6JRccHsd mice at E18. Animals were sacrificed and embryos were dissected in Calcium and Magnesium free Hanks Balanced Salt Solution (CMF-HBSS) containing 15 mM HEPES and 10 mM NaHCO3, pH 7.2. Embryos were decapitated, skin and skull gently removed and hemispheres were separated. […]
The MTT assay was conducted according to manufacturer's instructions (Invitrogen/Molecular Probes, Eugene, Oreg.) and was measured using a plate reader at an absorbance wavelength of 570 nm. Cell survival rate was expressed either as the absorbance values or as optical density (OD), with values calculated as % of controls.
Primary neuronal culture viability in the presence of Compound A/SND118 Primary neuron culture was prepared as described and treated with Compound A/SND118 at various concentrations for 24 hours. Cellular viability was measured using MTT assay as described.

With `O=c1cc(-c2ccc(CCCC[P+](c3ccccc3)(c3ccccc3)c3ccccc3)cc2)oc2c(O)c(O)ccc12` [SND118, 4-[4-(7,8-dihydroxy-4-oxo-chromen-2-yl)phenyl]butyltriphenylphosphonium bromide] the “mRNA expression of Cox (cytochrome oxidase)” value (Cox (cytochrome oxidase)) was “unaffected”, the “T1/2 plasma Mouse” value [1] was 13.2 h and the “level of TNF-α in response to LPS stimulation” value (TNF-α) was “significantly decreased”. For the same compound, the “Cellular viability (MTT): concentration up to which not toxic” value [2] was no more than 10 µM.

Source: patent publication US20220411448A1, “CHROMENE-4-ONE DERIVATIVES AS BRAIN-DERIVED NEUROTROPHIC FACTOR (BDNF) MIMETICS” (FLORATEK PHARMA AG, priority 2019, published 2022)
